Test results as given in US20130061339A1, “METHOD OF DIAGNOSING TRICHOTILLOMANIA AND SIMILAR DISORDERS IN HUMANS AND RODENTS” (Purdue Research Foundation, priority 2011, published 2013).

What was measured:
[1] = tested on: trichotillomania patients; details: 50 trichotillomania patients, randomized double-blind placebo study [2]; cited from earlier work
[2] = tested on: barbering behavior in C57BL/6J mice; assay: barbering in mice after 24 weeks of feed supplemented with NAC; type: in vivo, mouse; details: NAC 1 g/kg/day in feed, vs mice not treated with NAC, P=0.0152
Text: (§1) Thirty-two female adult C57BL/6J mice (14 barbers and 18 non-barbers) were separated into cages with no barbers, and cages with at least one barber. Cages with no barbers were fed a diet to induce barbering, as per Dufour, et al.. Cages with barbers were fed a regular mouse diet. Half the cages in each group had their feed supplemented with NAC, at a dose of 1 g/kg/day per mouse. Urine was collected at baseline and 24 weeks, to measure: reductive capacity, which reflects the sum of unused antioxidants from the diet, and antioxidants produced to defend the body. The level of 8 hydroxy-2-deoxyguanosine (8-OH-dG) which measures DNA damage from ongoing oxidative stress was also measured at 24 weeks only. Urine concentration was controlled by measuring creatinine. Six animals provided urine too dilute for analysis. Barbering and patterns of hair loss were recorded every 2 weeks. Data were analyzed using generalized linear model (GLM) and logistic regression using JMP statistical software, available from SAS, Cary N.C.

[3] = standardized reductive capacity of urine after treatment; type: in vivo, mouse; details: 24 weeks, NAC 1 g/kg/day in feed, mice that were and were not barbers at the start; P=0.0244
Text: as §1

CC(=O)N[C@@H](CS)C(=O)O [NAC, N-acetylcysteine]
patients in whom symptoms were reduced [1]: 56% | proportion of mice barbering after 24 weeks of treatment (curative effect) ([2]; mice that were barbers at the start, regular diet): fewer mice treated with NAC were barbering | proportion of mice barbering after 24 weeks of treatment (preventative effect) ([2]; mice that were not barbers at the start, barbering-inducing diet): fewer mice treated with NAC were barbering | standardized reductive capacity of urine after treatment [3]: only increases reductive capacity in healthy mice
